From the supplement of paper PMC10307832

Key:
Assay in all cases: relative viability (nuclei count vs DMSO), 5 days (fraction); higher = more cells survive
Dinaciclib + Foretinib = compound: CCc1cnn2c(NCc3ccc[n+]([O-])c3)cc(N3CCCC[C@H]3CCO)nc12 [Dinaciclib] + COc1cc2c(Oc3ccc(NC(=O)C4(C(=O)Nc5ccc(F)cc5)CC4)cc3F)ccnc2cc1OCCCN1CCOCC1 [Foretinib] (partner 0.25 µM)
Summary of the method: (§1)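 Each reported value is a median over duplicate plates. It expresses relative viability: treated-well nuclei count divided by vehicle-well nuclei count. Lung cancer cell lines in 1536-well plates were dosed by pin tool a day after seeding, alone with one drug or with a fixed anchor-drug dose plus five library-drug doses (not always all listed) in √10 steps, and nuclei were counted after 5 days.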

Dinaciclib + Lapatinib = compound: CCc1cnn2c(NCc3ccc[n+]([O-])c3)cc(N3CCCC[C@H]3CCO)nc12 [Dinaciclib] + CS(=O)(=O)CCNCc1ccc(-c2ccc3ncnc(Nc4ccc(OCc5cccc(F)c5)c(Cl)c4)c3c2)o1 [Lapatinib] (partner 2 µM)
Summary of the method: as §1

Dinaciclib + Dasatinib = compound: CCc1cnn2c(NCc3ccc[n+]([O-])c3)cc(N3CCCC[C@H]3CCO)nc12 [Dinaciclib] + Cc1nc(Nc2ncc(C(=O)Nc3c(C)cccc3Cl)s2)cc(N2CCN(CCO)CC2)n1 [Dasatinib] (partner 0.075 µM)
Summary of the method: as §1

Dinaciclib + Navitoclax = compound: CCc1cnn2c(NCc3ccc[n+]([O-])c3)cc(N3CCCC[C@H]3CCO)nc12 [Dinaciclib] + CC1(C)CCC(c2ccc(Cl)cc2)=C(CN2CCN(c3ccc(C(=O)NS(=O)(=O)c4ccc(N[C@H](CCN5CCOCC5)CSc5ccccc5)c(S(=O)(=O)C(F)(F)F)c4)cc3)CC2)C1 [Navitoclax] (partner 0.5 µM)
Summary of the method: as §1

Dinaciclib + Trametinib = compound: CCc1cnn2c(NCc3ccc[n+]([O-])c3)cc(N3CCCC[C@H]3CCO)nc12 [Dinaciclib] + CC(=O)Nc1cccc(-n2c(=O)n(C3CC3)c(=O)c3c(Nc4ccc(I)cc4F)n(C)c(=O)c(C)c32)c1 [Trametinib] (partner 0.02 µM)
Summary of the method: as §1

Row | Cell Line | relative viability (Dinaciclib + Foretinib; first compound 0.009487 µM) | relative viability (Dinaciclib + Foretinib; first compound 0.03 µM) | relative viability (Dinaciclib + Foretinib; first compound 0.09487 µM) | relative viability (Dinaciclib + Foretinib; first compound 0.3 µM) | relative viability (Dinaciclib + Lapatinib; first compound 0.009487 µM) | relative viability (Dinaciclib + Lapatinib; first compound 0.03 µM) | relative viability (Dinaciclib + Lapatinib; first compound 0.09487 µM) | relative viability (Dinaciclib + Lapatinib; first compound 0.3 µM) | relative viability (Dinaciclib + Dasatinib; first compound 0.009487 µM) | relative viability (Dinaciclib + Dasatinib; first compound 0.03 µM) | relative viability (Dinaciclib + Dasatinib; first compound 0.09487 µM) | relative viability (Dinaciclib + Dasatinib; first compound 0.3 µM) | relative viability (Dinaciclib + Navitoclax; first compound 0.009487 µM) | relative viability (Dinaciclib + Navitoclax; first compound 0.03 µM) | relative viability (Dinaciclib + Navitoclax; first compound 0.09487 µM) | relative viability (Dinaciclib + Navitoclax; first compound 0.3 µM) | relative viability (Dinaciclib + Trametinib; first compound 0.009487 µM) | relative viability (Dinaciclib + Trametinib; first compound 0.03 µM) | relative viability (Dinaciclib + Trametinib; first compound 0.09487 µM) | relative viability (Dinaciclib + Trametinib; first compound 0.3 µM)
1 | LXF-289 | 1.03 | 0.706 | 0.0732 | 0.0742 | 0.926 | 0.167 | 0.106 | 0.0884 | 0.282 | 0.0717 | 0.0492 | 0.0472 | 0.921 | 0.189 | 0.0659 | 0.0645 | 0.682 | 0.307 | 0.0823 | 0.103
2 | NCI-H23 | 0.57 | 0.187 | 0.108 | 0.15 | 0.31 | 0.128 | 0.12 | 0.129 | 0.647 | 0.249 | 0.0991 | 0.114 | 0.74 | 0.173 | 0.113 | 0.12 | 0.305 | 0.164 | 0.13 | 0.122
3 | NCI-H322M | 0.801 | 0.287 | 0.302 | 0.281 | 0.637 | 0.325 | 0.243 | 0.201 | 0.248 | 0.248 | 0.247 | 0.28 | 1.27 | 1.2 | 0.587 | 0.205 | 0.623 | 0.36 | 0.341 | 0.391
4 | NCI-H460 | 0.803 | 0.0417 | 0.0257 | 0.0233 | 0.089 | 0.0117 | 0.011 | 0.0113 | 0.453 | 0.0263 | 0.0179 | 0.021 | 1.05 | 0.0119 | 0.0108 | 0.0098 | 0.0986 | 0.0124 | 0.0166 | 0.0082
5 | NCI-H520 | 0.573 | 0.126 | 0.136 | 0.151 | 0.509 | 0.115 | 0.104 | 0.141 | 0.201 | 0.151 | 0.165 | 0.155 | 0.69 | 0.12 | 0.12 | 0.117 | 0.506 | 0.104 | 0.0836 | 0.104
6 | NCI-H596 | 0.861 | 0.547 | 0.176 | 0.178 | 0.943 | 0.341 | 0.187 | 0.16 | 0.675 | 0.643 | 0.232 | 0.178 | 0.872 | 0.276 | 0.0498 | 0.09 | 0.711 | 0.692 | 0.19 | 0.19
7 | NCI-H647 | 0.687 | 0.221 | 0.0703 | 0.0856 | 0.31 | 0.0588 | 0.0482 | 0.0727 | 0.104 | 0.0306 | 0.0319 | 0.042 | 0.764 | 0.0454 | 0.0549 | 0.0648 | 0.379 | 0.192 | 0.0855 | 0.0533
8 | NCI-H727 | 1.05 | 0.283 | 0.259 | 0.249 | 0.644 | 0.238 | 0.222 | 0.228 | 0.344 | 0.263 | 0.209 | 0.325 | 0.37 | 0.0912 | 0.0827 | 0.0949 | 0.39 | 0.324 | 0.324 | 0.392
9 | NCI-H838 | 0.993 | 0.487 | 0.125 | 0.101 | 0.239 | 0.106 | 0.0848 | 0.109 | 0.176 | 0.173 | 0.143 | 0.138 | 0.901 | 0.226 | 0.13 | 0.118 | 0.315 | 0.127 | 0.0741 | 0.0706
10 | NCI-H1355 | 1.12 | 0.268 | 0.148 | 0.166 | 0.979 | 0.681 | 0.142 | 0.138 | 0.815 | 0.419 | 0.147 | 0.159 | 0.943 | 0.159 | 0.123 | 0.0999 | 0.457 | 0.349 | 0.173 | 0.14
11 | NCI-H1395 | 1.18 | 0.335 | 0.269 | 0.252 | 0.506 | 0.314 | 0.292 | 0.276 | 0.411 | 0.289 | 0.268 | 0.228 | 1.06 | 0.263 | 0.299 | 0.267 | 1.11 | 0.315 | 0.281 | 0.289
12 | NCI-H1437 | 1.06 | 0.564 | 0.184 | 0.15 | 0.637 | 0.115 | 0.0859 | 0.0933 | 0.411 | 0.102 | 0.103 | 0.0897 | 0.972 | 0.108 | 0.106 | 0.0962 | 0.403 | 0.212 | 0.134 | 0.135
13 | NCI-H1650 | 1.1 | 0.336 | 0.167 | 0.14 | 0.648 | 0.15 | 0.169 | 0.143 | 0.197 | 0.171 | 0.179 | 0.133 | 1.17 | 0.144 | 0.0928 | 0.139 | 0.516 | 0.163 | 0.151 | 0.119
14 | NCI-H1651 | 0.858 | 0.683 | 0.0694 | 0.0598 | 0.685 | 0.142 | 0.0637 | 0.0602 | 0.299 | 0.159 | 0.0523 | 0.0403 | 0.745 | 0.289 | 0.0312 | 0.0396 | 0.785 | 0.668 | 0.173 | 0.072
15 | NCI-H1666 | 0.832 | 0.318 | 0.38 | 0.328 | 0.319 | 0.19 | 0.182 | 0.212 | 0.617 | 0.37 | 0.304 | 0.264 | 0.848 | 0.186 | 0.227 | 0.244 | 0.731 | 0.431 | 0.57 | 0.49
